Values joined by “and” are separate entries in the source; they are usually repeats but may differ in a detail not shown here. Identical values can stand only once.
Key:
Homo sapiens = species on record: Homo sapiens; assay: Inhibition of human vascular smooth muscle proliferation was determined; type: functional; settings: Muscle tissue
[1] = target: Integrin alpha-IIb/beta-3 (Homo sapiens, UniProt P05106+P08514); assay: Inhibitory activity was determined against human alpha IIb beta3 integrin; type: protein-complex assay
[2] = target: Integrin alpha-V/beta-3 and alpha-IIb/beta 3 (Homo sapiens) (UniProt P05106+P06756+P08514); assay: Ratio of inhibitory activity against human alpha V beta-3 integrin to that of alpha IIb beta-3 integrin; type: protein assay
Rattus norvegicus [3] = assay: Antistenoic effect infused subcutaneously at a constant rate of 1.3 umol/rat/day; type: functional
Rattus norvegicus [4] = assay: Ratio of Intima area to media area was tested by subcutaneous infusion of compound at a constant rate of 1.3 umol/rat/day; type: functional
Rattus norvegicus [5] = assay: Antistenoic effect infused subcutaneously at a constant rate of 0.43 umol/rat/day; type: functional
Rattus norvegicus [6] = assay: Antistenoic effect infused subcutaneously at a constant rate of 0.14 umol/rat/day; type: functional
Integrin alpha-V/beta-3 = Integrin alpha-V/beta-3 (Homo sapiens, UniProt P05106+P06756); assay: Inhibitory activity was determined against human vitronectin receptor (alpha V beta 3); type: protein-complex assay
Chain of Integrin alpha-V/beta-3 (P05106 27-788 limits assumed): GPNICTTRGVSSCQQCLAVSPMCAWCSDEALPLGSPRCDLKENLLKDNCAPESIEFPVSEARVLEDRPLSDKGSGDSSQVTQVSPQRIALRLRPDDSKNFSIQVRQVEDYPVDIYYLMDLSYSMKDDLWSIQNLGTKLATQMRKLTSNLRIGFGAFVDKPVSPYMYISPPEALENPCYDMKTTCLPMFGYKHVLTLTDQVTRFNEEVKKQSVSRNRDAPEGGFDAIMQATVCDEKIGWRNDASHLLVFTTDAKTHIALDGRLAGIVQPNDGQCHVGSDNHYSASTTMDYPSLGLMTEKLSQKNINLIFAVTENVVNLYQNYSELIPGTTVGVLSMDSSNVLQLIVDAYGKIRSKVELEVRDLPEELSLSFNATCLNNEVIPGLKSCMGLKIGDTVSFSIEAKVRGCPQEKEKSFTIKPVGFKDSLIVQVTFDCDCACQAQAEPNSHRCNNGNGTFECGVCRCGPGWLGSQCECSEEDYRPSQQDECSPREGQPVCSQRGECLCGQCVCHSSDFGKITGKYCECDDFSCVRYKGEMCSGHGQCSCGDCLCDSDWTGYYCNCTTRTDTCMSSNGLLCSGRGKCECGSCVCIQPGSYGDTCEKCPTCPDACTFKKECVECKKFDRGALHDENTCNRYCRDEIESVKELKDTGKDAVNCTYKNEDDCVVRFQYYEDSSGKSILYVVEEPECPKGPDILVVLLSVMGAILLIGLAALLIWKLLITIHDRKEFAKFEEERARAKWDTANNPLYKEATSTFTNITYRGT
Chain of Integrin alpha-V/beta-3 (P06756 31-889 limits assumed): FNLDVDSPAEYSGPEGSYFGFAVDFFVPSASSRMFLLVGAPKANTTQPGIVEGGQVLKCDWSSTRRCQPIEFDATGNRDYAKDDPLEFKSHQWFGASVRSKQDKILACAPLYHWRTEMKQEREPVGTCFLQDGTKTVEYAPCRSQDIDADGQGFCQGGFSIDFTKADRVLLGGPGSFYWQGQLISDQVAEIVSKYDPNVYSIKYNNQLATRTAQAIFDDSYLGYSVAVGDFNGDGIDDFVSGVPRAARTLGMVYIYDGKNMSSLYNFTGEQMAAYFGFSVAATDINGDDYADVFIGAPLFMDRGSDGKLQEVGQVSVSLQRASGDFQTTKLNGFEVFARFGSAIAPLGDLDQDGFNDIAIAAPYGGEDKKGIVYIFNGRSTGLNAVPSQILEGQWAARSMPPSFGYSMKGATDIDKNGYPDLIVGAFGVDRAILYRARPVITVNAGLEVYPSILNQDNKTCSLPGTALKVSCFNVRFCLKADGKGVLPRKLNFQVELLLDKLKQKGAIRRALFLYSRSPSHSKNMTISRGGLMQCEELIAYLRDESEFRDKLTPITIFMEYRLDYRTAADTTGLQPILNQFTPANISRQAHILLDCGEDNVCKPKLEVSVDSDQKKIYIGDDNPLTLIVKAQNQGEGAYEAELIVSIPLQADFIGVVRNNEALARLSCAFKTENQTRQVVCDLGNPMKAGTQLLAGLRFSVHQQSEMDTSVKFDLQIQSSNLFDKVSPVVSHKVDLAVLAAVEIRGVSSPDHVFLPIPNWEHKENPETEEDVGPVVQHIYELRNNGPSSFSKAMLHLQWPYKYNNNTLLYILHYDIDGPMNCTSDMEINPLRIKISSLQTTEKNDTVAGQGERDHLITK
Chain of Integrin alpha-V/beta-3 (P06756 891-1048 limits assumed): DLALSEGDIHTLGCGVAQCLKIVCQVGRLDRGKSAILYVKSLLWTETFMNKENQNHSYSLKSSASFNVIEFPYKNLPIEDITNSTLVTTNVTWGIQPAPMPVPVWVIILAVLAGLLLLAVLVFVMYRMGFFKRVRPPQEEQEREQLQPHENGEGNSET

Chain of Integrin alpha-IIb/beta-3 (P05106 27-788 limits assumed): as the sequence (P05106 27-788 limits assumed) above
Chain of Integrin alpha-IIb/beta-3 (P08514 32-887 limits assumed): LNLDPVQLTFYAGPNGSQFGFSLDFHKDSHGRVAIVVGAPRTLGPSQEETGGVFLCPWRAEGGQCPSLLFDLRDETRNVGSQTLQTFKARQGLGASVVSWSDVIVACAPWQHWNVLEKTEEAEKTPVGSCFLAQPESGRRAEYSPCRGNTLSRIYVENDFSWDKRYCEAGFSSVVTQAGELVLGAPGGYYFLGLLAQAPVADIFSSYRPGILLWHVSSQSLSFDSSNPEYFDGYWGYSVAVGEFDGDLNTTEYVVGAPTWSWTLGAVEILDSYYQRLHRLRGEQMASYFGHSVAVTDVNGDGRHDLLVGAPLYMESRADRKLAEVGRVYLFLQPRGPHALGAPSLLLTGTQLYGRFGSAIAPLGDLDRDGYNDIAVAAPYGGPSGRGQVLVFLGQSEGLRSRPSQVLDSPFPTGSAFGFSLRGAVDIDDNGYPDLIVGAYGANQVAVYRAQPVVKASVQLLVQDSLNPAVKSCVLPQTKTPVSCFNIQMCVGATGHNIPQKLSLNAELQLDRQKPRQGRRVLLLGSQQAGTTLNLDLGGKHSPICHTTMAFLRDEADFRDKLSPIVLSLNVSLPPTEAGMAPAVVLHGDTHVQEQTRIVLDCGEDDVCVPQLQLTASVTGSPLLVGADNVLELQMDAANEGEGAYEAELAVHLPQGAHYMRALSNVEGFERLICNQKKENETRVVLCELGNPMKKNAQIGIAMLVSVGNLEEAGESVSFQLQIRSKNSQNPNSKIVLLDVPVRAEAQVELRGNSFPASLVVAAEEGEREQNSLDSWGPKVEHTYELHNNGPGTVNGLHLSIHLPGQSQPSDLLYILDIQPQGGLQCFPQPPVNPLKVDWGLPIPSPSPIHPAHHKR
Chain of Integrin alpha-IIb/beta-3 (P08514 891-1039 limits assumed): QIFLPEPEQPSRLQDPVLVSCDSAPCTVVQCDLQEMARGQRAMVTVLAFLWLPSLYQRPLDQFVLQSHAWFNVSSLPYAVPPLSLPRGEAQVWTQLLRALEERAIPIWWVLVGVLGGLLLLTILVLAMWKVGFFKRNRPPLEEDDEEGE

IC50 [1] [nM] | Ratio [2] | IC50 (Integrin alpha-V/beta-3) [nM] | SMILES | IC50 (Homo sapiens) [nM] | Inhibition (Rattus norvegicus [3]) | Intima area (Rattus norvegicus [3]) | intima/media ratio (Rattus norvegicus [4]) | Inhibition (Rattus norvegicus [5]) [%] | Inhibition (Rattus norvegicus [6]) [%]
> 1000 | > 33000 | – | CC(C)COC(=O)N[C@@H](CCC(=O)N1CCN(c2cccc(NC3=NCC(O)CN3)c2)CC1)C(=O)O (stereo partly specified) | 2000 | – | – | – | – | –
> 1000 | > 3100 | – | CC(C)COC(=O)N[C@@H](CCC(=O)N1CCN(c2cccc(NC3=NCCCN3)c2)CC1)C(=O)O | 910 | – | – | – | – | –
– | 8600 | – | O=C(N[C@@H](CCC(=O)N1CCN(c2cccc(NC3=NCC(F)CN3)c2)CC1)C(=O)O)OCc1ccccc1 (stereo partly specified) | 260 | 38% and 34% | 113 10e3 um2 and 149 10e3 um2 | 0.76 | – | –
> 1000 | > 280 | – | CCNC(=O)N[C@@H](CCC(=O)N1CCN(c2cccc(NC3=NCCCN3)c2)CC1)C(=O)O | > 10000 | – | – | – | – | –
> 1000 | > 18000 | – | CC(C)COC(=O)N[C@@H](CCC(=O)N1CCN(c2cccc(NC3=NCC(F)CN3)c2)CC1)C(=O)O (stereo partly specified) | 180 | 54% and 53% | 81 10e3 um2 and 162 10e3 um2 | 0.5 | 38 | 21
660 | 11000 | 0.058 | O=C(N[C@@H](CCC(=O)N1CCN(c2cccc(NC3=NCCCN3)c2)CC1)C(=O)O)OCc1ccccc1 | 1100 | – | – | – | – | –
> 1000 | > 710 | – | O=C(NCc1ccccc1)N[C@@H](CCC(=O)N1CCN(c2cccc(NC3=NCCCN3)c2)CC1)C(=O)O | > 10000 | – | – | – | – | –
– | 2300 | – | O=C(N[C@@H](CCC(=O)N1CCN(c2cccc(NC3=NCC(O)CN3)c2)CC1)C(=O)O)OCc1ccccc1 (stereo partly specified) | 3500 | – | – | – | – | –
> 1000 | > 18000 | – | O=C(N[C@@H](CCC(=O)N1CCN(c2cccc(NC3=NCCCCN3)c2)CC1)C(=O)O)OCc1ccccc1 | 1700 | – | – | – | – | –
88 | 63 | 1.4 | O=C(O)[C@H](CCC(=O)N1CCN(c2cccc(NC3=NCCCN3)c2)CC1)NS(=O)(=O)c1ccccc1 | > 10000 | – | – | – | – | –
> 1000 | > 150 | – | O=C(Cc1ccccc1)N[C@@H](CCC(=O)N1CCN(c2cccc(NC3=NCCCN3)c2)CC1)C(=O)O | > 10000 | – | – | – | – | –
> 1000 | > 1700 | – | CCOC(=O)N[C@@H](CCC(=O)N1CCN(c2cccc(NC3=NCCCN3)c2)CC1)C(=O)O | 2100 | – | – | – | – | –
– | 4500 | – | O=C(N[C@@H](CCC(=O)N1CCN(c2cccc(NC3=NCCN3)c2)CC1)C(=O)O)OCc1ccccc1 | 3000 | – | – | – | – | –
> 1000 | > 2600 | – | CC(C)COC(=O)N[C@@H](CCC(=O)N1CCN(c2cccc(NC3=NCC(C)(C)CN3)c2)CC1)C(=O)O | 3400 | – | – | – | – | –
– | 140 | – | Cc1cc(C)c(S(=O)(=O)N[C@@H](CCC(=O)N2CCN(c3cccc(NC4=NCCCN4)c3)CC2)C(=O)O)c(C)c1 | > 10000 | – | – | – | – | –
